Activity calls are given as the source filed them. No cut-off for these calls is given here.
What was measured:
NCI-H358 [1] = test: Induction of apoptosis in human NCI-H358 cells grown under 3D anchorage-independent soft-agar conditions at grown under 3D anchorage-independent soft-agar conditions assessed as induction of PARP cleavage at 1 uM in presence of 125 nM of afatinib incubated for 24 hrs by mesoscale assay; format: functional, cell-based
A549 = test: Induction of apoptosis in human A549 cells grown under 3D anchorage-independent soft-agar conditions at grown under 3D anchorage-independent soft-agar conditions assessed as induction of PARP cleavage at 1 uM in presence of 10 nM of paclitaxel incubated for 24 to 48 hrs by mesoscale assay; format: functional, cell-based
NCI-H358 [2] = test: Induction of apoptosis in human NCI-H358 cells grown under 3D anchorage-independent soft-agar conditions at grown under 3D anchorage-independent soft-agar conditions assessed as induction of PARP cleavage at 1 uM incubated for 24 to 72 hrs by mesoscale assay; format: functional, cell-based
MIA PaCa-2 [3] = conditions: Homo sapiens, 50 mg/kg
Description: Antitumor activity against human MIAPaCa2 cells grown under 3D anchorage-independent soft-agar conditions at xenografted in BomTacNMRI-Foxn1 nu mouse assessed as inhibition of tumor regression at 50 mg/kg, po BID relative to control

NCI-H1792 [4] = test: Growth inhibition of human NCI-H1792 cells grown under 3D anchorage-independent soft-agar conditions at 333 nM incubated for 14 days by alamar blue dye based assay relative to control; format: functional; conditions: NCI-H1792, 336 h, read-out: GI
NCI-H358 [5] = test: Growth inhibition of human NCI-H358 cells grown under 3D anchorage-independent soft-agar conditions at 333 nM incubated for 14 days by alamar blue dye based assay relative to control; format: functional; conditions: NCI-H358, 336 h, read-out: GI
NCI-H1792 [6] = test: Growth inhibition of human NCI-H1792 cells grown under 3D anchorage-independent soft-agar conditions at 12.3 nM incubated for 14 days by alamar blue dye based assay relative to control; format: functional; conditions: NCI-H1792, 336 h, read-out: GI
NCI-H1792 [7] = test: Growth inhibition of human NCI-H1792 cells grown under 3D anchorage-independent soft-agar conditions at 1000 nM incubated for 14 days by alamar blue dye based assay relative to control; format: functional; conditions: NCI-H1792, 336 h, read-out: GI
NCI-H358 [8] = test: Growth inhibition of human NCI-H358 cells grown under 3D anchorage-independent soft-agar conditions at 37 nM incubated for 14 days by alamar blue dye based assay relative to control; format: functional; conditions: NCI-H358, 336 h, read-out: GI
NCI-H358 [9] = test: Growth inhibition of human NCI-H358 cells grown under 3D anchorage-independent soft-agar conditions at 1000 nM incubated for 14 days by alamar blue dye based assay relative to control; format: functional; conditions: NCI-H358, 336 h, read-out: GI
NCI-H1792 [10] = test: Growth inhibition of human NCI-H1792 cells grown under 3D anchorage-independent soft-agar conditions at 111 nM incubated for 14 days by alamar blue dye based assay relative to control; format: functional; conditions: NCI-H1792, 336 h, read-out: GI
NCI-H358 [11] = test: Growth inhibition of human NCI-H358 cells grown under 3D anchorage-independent soft-agar conditions at 12.3 nM incubated for 14 days by alamar blue dye based assay relative to control; format: functional; conditions: NCI-H358, 336 h, read-out: GI
NCI-H1792 [12] = test: Growth inhibition of human NCI-H1792 cells grown under 3D anchorage-independent soft-agar conditions at 37 nM incubated for 14 days by alamar blue dye based assay relative to control; format: functional; conditions: NCI-H1792, 336 h, read-out: GI
NCI-H358 [13] = test: Growth inhibition of human NCI-H358 cells grown under 3D anchorage-independent soft-agar conditions at 111 nM incubated for 14 days by alamar blue dye based assay relative to control; format: functional; conditions: NCI-H358, 336 h, read-out: GI
MIA PaCa-2 [14] = test: Antitumor activity against human MIAPaCa2 cells grown under 3D anchorage-independent soft-agar conditions at xenografted in BomTacNMRI-Foxn1 nu mouse assessed as inhibition of tumor regression at 0.05 mg/kg, po BID relative to control; format: functional, organism-based
[15] = target: T1, Mitogen-activated protein kinase; ERK1/ERK2 (Homo sapiens) (UniProt P27361+P28482); test: Inhibition of ERK1/2 phosphorylation at Thr202/Tyr204 residues in human MIAPaCa2 cells grown under 3D anchorage-independent soft-agar conditions at 50 nM incubated for 2 to 8 hrs by Western blotting analysis relative to control; format: cell-based
[16] = target: T1, Mitogen-activated protein kinase; ERK1/ERK2 (Homo sapiens); test: Inhibition of ERK1/2 phosphorylation in human MIAPaCa2 cells grown under 3D anchorage-independent soft-agar conditions at assessed as increase in MEK1/2 phosphorylation at Ser 217/221 residues at 25 nM incubated for 2 to 8 hrs by Western blotting analysis; format: cell-based
MIA PaCa-2 [17] = test: Antitumor activity against human MIAPaCa2 cells grown under 3D anchorage-independent soft-agar conditions at xenografted in BomTacNMRI-Foxn1 nu mouse assessed as inhibition of tumor regression at 0.125 mg/kg, po BID relative to control; format: functional, organism-based
NCI-H358 [18] = test: Induction of apoptosis in human NCI-H358 cells grown under 3D anchorage-independent soft-agar conditions at grown under 3D anchorage-independent soft-agar conditions assessed as induction of PARP cleavage at 125 nM incubated for 48 hrs by mesoscale assay; format: functional, cell-based

T1 sequence (P27361 whole entry, looked up): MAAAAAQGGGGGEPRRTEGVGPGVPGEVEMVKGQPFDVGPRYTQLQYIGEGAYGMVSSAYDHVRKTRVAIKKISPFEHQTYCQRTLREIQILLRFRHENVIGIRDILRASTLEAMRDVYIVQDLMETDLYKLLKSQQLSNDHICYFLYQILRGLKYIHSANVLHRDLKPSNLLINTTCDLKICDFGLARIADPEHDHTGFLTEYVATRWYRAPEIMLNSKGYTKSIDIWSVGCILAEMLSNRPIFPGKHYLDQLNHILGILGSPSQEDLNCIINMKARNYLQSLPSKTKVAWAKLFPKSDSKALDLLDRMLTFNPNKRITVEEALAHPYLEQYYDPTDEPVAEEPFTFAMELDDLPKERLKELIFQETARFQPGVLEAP
T1 sequence (P28482 whole entry, looked up): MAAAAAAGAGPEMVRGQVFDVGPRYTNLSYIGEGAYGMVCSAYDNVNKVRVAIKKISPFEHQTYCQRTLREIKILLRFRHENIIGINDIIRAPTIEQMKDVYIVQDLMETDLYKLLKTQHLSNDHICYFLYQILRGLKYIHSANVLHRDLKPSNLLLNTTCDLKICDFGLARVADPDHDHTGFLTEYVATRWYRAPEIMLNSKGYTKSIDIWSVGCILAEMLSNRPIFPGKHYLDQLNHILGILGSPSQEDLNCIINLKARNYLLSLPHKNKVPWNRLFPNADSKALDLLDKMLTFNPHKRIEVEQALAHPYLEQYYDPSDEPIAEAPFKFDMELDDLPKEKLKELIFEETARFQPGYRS

With `COc1cc2nc(C)nc(N[C@H](C)c3cc(N)cc(C(F)(F)F)c3)c2cc1O[C@H]1CCOC1` the Activity (NCI-H358 [1]) was “Active”, the Activity (A549) was “Active” and the Activity (NCI-H358 [2]) was “inactive”. The inhibition (MIA PaCa-2 [3]) was “inactive”.
For `C=CC(=O)N1CCN(c2ncnc3c(F)c(-c4cc(O)cc5ccccc45)c(Cl)cc23)CC1`, the inhibition of growth at 0.333 µM (NCI-H1792 [4]) was 46%, the inhibition of growth at 0.333 µM (NCI-H358 [5]) was 139% and the inhibition of growth at 0.0123 µM (NCI-H1792 [6]) was 5%. It also gave an inhibition of growth at 1 µM (NCI-H1792 [7]) of 81%, an inhibition of growth at 0.037 µM (NCI-H358 [8]) of 47% and an inhibition of growth at 1 µM (NCI-H358 [9]) of 180%. The inhibition of growth at 0.111 µM (NCI-H1792 [10]) was 42%, the inhibition of growth at 0.0123 µM (NCI-H358 [11]) was 17% and the inhibition of growth at 0.037 µM (NCI-H1792 [12]) was 29%. It also gave an inhibition of growth at 0.111 µM (NCI-H358 [13]) of 87%.
`CC(=O)Nc1cccc(-n2c(=O)n(C3CC3)c(=O)c3c(Nc4ccc(I)cc4F)n(C)c(=O)c(C)c32)c1` was tested, and the inhibition (MIA PaCa-2 [14]) was “inactive”, the inhibition [15] was 65 to 75% and the inhibition [16] was “Active”. The inhibition (MIA PaCa-2 [17]) was “inactive”.
For `CN(C)C/C=C/C(=O)Nc1cc2c(Nc3ccc(F)c(Cl)c3)ncnc2cc1O[C@H]1CCOC1`, the Activity (NCI-H358 [18]) was “Active”.

Reference: ChEMBL document CHEMBL4420081, “Novel benzylamino substituted quinazolines and derivatives as sos1 inhibitors” (2018)
